# Assay results from US6828341B2, “Cyclohexylamine derivatives as subtype selective N-Methyl-D-Aspartate antagonists” (Warner-Lambert Company, priority 2001, dated 2004).
# Counter-ions that a name gives are not always drawn.
# Key:
# [1] = molecular target: T1, NR1A/NR2B NMDA receptor subtype (Rattus norvegicus, UniProt P35439+Q00960); experiment: [3H]Ifenprodil binding assay (IFPNR); conditions: displacement of 4 nM [3H]-ifenprodil, adult rat forebrain membranes, 2 hours at room temperature, pH 7.4
# T1 construct: membrane fraction was prepared from frozen adult rat forebrains; tissue Zivic-Miller Laboratories, Inc; host or cells: adult rat forebrain, washed buffy coat membrane fraction
# Method: (b) [^3H]Ifenprodil Binding Assay (IFPNR) Protocol:
# Ifenprodil, [phenyl-^3H]-(specific activity, 66.2 Ci/mmol) was purchased from Dupont NEN Research Products (Boston, Mass.). Ifenprodil tartrate was purchased from Research Biochemicals International (Natick, Mass.). HEPES, glutamate, and glycine were purchased from Sigma Chemical Co. (St. Louis, Mo.).
# All buffers and reagents used in assay incubations or to dissolve drugs were prepared using water purified through a Milli-Q reverse osmosis system (Millipore Corp., Bedford, Mass.) and treated with UV emissions. Prior to use in the assays buffers were further filtered through a sterile Corning filtration unit (Corning Glass Works, Corning, N.Y.) containing a 0.2 micron filter. Buffer used to rinse the membranes on the assay filters was prepared with purified water, but was not refiltered and was stored no longer than 5 days. Stock solutions of the drugs (usually 10 mM) were dissolved in 20 mM HEPES-KOH buffer pH 7.4 (assay buffer) with the addition of from 1 to 5 μL of glacial AcOH, if needed to keep them in solution. Eliprodil was used as the reference NMDA antagonist. A stock solution of eliprodil was prepared and was buffered with the addition of 10% DMSO. All subsequent dilutions from the stock solution were made in buffer.
# An extensively washed buffy coat membrane fraction was prepared from frozen adult rat forebrains (Zivic-Miller Laboratories, Inc., Zelienople, Pa.) as described by Coughenour L. L., Cordon J. J., J. Phannacol. Exp. Ther., 1997;280:584-592, and stored at −80° C. On the day of the assay, pellets of the frozen membrane fractions were resuspended in 35 mL of assay buffer at pH 7.4 using a POLYTRON (Kinematica A.G. Company, Littau, Switzerland) mixer at setting 6. After incubation at 37° C. for 30 minutes in a shaking water bath, the homogenate was centrifuged 40,000×g for 10 minutes at 4° C. The pellets were resuspended in fresh buffer and centrifuged 3 more times before final suspension for use in the assay.
# Triplicate incubations were carried out in a volume of 0.5 mL in 1.3 mL polypropylene tubes (Marsh Biomedical Products Inc., Rochester, N.Y.) for 2 hours at room temperature. Incubations contained invention compounds, membranes (100-200 μg protein) and 4 nM [^3H]-ifenprodil in 20 mM HEPES-KOH buffer, pH 7.4 (assay buffer). Assays were started by addition of the membranes. Bound radioligand was separated by filtration under reduced pressure using a TOMTEC Mach II, 96 well cell harvester (Tomtec Inc, Orange, Conn.). Filtration was through Whatman GF/B glass fiber filters (Whatman Ltd., Maidstone, England), which had been soaked for at least 15 minutes in 0.3% polyethylenimine and allowed to air dry. The filters were rinsed with 3 mL of ice cold assay buffer within 6 seconds. Air was allowed to pass through the filters for an additional 10 seconds to remove residual moisture. The filter mat was supported on a cold (−20° C.) TEFLON (E. I. Du Pont de Nemours and Company, Wilmington, Del.) coated support, and filters from individual wells were separated and placed in Mini Poly-Q vials (Beckman Instruments Inc., Fullerton, Calif.) and filled with 4 mL of scintillation cocktail (Beckman Ready Protein^+). Radioactivity retained on the filter was determined by liquid scintillation spectrophotometry. Nonspecific binding was defined as the binding in the presence of 1 mM ifenprodil. 90% of the total binding of ifenprodil was specific binding at the NR1A/NR2B NMDA receptor subtype active site (as opposed to binding at a remote site).
# Binding curves were statistically analyzed for a best one- or two-site competition fit using GRAPHPAD PRISM software (GraphPad Software Inc., San Diego, Calif.), a computer program used to analyze and graph scientific data. The normalized data was fitted by nonweighted nonlinear regression to either [formula]
# Control data was entered as 100%, and no parameters were constrained. […]
# T1 sequence (Q00960 27-1482, other chains not shown): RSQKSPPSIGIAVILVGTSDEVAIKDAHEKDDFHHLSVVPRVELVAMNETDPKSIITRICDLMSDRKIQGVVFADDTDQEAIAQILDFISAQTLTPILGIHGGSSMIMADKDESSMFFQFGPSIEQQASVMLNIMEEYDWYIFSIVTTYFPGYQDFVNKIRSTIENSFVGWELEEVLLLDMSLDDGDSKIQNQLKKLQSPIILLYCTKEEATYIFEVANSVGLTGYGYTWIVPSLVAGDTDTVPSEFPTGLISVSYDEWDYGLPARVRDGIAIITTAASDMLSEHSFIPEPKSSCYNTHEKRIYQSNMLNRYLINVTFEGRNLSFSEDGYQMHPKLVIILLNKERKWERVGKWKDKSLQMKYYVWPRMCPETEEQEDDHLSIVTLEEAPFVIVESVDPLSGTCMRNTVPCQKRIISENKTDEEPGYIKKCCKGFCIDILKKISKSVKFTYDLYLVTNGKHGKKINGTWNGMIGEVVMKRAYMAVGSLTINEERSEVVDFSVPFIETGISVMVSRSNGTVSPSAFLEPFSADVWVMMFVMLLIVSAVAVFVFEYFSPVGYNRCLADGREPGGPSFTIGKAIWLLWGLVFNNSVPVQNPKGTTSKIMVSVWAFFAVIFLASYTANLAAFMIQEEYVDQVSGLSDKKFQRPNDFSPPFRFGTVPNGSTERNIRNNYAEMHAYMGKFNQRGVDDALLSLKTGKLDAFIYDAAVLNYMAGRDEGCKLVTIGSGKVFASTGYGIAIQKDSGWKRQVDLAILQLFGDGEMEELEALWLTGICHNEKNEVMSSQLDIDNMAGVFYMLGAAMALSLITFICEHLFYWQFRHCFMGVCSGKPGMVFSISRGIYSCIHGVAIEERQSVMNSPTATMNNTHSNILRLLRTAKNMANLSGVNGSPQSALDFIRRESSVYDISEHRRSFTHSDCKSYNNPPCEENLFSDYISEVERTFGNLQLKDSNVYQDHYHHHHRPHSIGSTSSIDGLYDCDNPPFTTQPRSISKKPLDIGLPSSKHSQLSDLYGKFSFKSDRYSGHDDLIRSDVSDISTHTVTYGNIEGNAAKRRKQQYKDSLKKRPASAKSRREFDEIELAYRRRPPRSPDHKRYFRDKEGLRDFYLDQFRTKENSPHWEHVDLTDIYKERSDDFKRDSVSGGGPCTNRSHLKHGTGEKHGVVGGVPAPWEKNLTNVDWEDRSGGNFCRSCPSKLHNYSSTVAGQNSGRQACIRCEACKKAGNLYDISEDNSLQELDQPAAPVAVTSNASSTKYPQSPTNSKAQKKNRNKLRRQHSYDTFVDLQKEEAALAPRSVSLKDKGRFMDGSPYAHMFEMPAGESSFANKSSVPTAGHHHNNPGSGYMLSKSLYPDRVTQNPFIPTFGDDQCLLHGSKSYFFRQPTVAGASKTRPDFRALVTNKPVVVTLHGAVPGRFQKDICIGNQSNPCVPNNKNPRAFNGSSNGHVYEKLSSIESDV
Structure (SMILES),melting point,IC50 [1]
"Cc1oc(-c2ccccc2)cc1CN(C)[C@H]1CC[C@H](c2ccc3[nH]c(=O)oc3c2)CC1 (as salt: hydrochloride) [Example 2, trans-6-{4-[Methyl-(2-methyl-5-phenyl-furan-3-ylmethyl)-amino]-cyclohexyl}-3H-benzoxazol-2-one]",176 to 183 °C,
"CN(CC1CC(c2ccc3[nH]c(=O)oc3c2)=NO1)[C@H]1CC[C@H](c2ccccc2)CC1 (relative stereo) (as salt: hydrochloride) [Example 1, trans-6-(5-{[Methyl-(4-phenyl-cyclohexyl)-amino]-methyl}-4,5-dihydro-isoxazol-3-yl)-3H-benzoxazol-2-one]",270 to 274 °C,
"CN(CC1CC(c2ccc3[nH]c(=O)oc3c2)=NO1)[C@H]1CC[C@H](c2ccccc2)CC1 (relative stereo) [Example 1, trans-6-(5-{[Methyl-(4-phenyl-cyclohexyl)-amino]-methyl}-4,5-dihydro-isoxazol-3-yl)-3H-benzoxazol-2-one]",,5900 nM
"CN(CC1CC(c2ccc(F)cc2)=NO1)[C@H]1CC[C@H](c2ccc3[nH]c(=O)oc3c2)CC1 (relative stereo) [Example 6b, trans-6-(4-{[3-(4-Fluoro-phenyl)-4,5-dihydro-isoxazol-5-ylmethyl]-methyl-amino}-cyclohexyl)-3H-benzoxazol-2-one]",109 to 114 °C,391 nM
"Cc1oc(-c2ccccc2)cc1CN(C)[C@H]1CC[C@H](c2ccc3[nH]c(=O)oc3c2)CC1 [Example 2, trans-6-{4-[Methyl-(2-methyl-5-phenyl-furan-3-ylmethyl)-amino]-cyclohexyl}-3H-benzoxazol-2-one]",,6670 nM
"CN(C[C@@H]1CN(c2ccccc2)C(=O)O1)[C@H]1CC[C@H](c2ccc3[nH]c(=O)oc3c2)CC1 [Example 3b, trans-(R)-6-{4-[Methyl-(2-oxo-3-phenyl-oxazolidin-5-ylmethyl)-amino]-cyclohexyl}-3H-benzoxazol-2-one]",,394 nM
"O=C1OC(CNC2CCC(c3ccc(F)cc3)CC2)CN1c1ccc2[nH]c(=O)oc2c1 (stereo not drawn) [Example 4a, trans-6-{5-[4-(4-Fluoro-phenyl)-cyclohexylamino]-methyl-2-oxo-oxazolindin-3-yl}-3H-benzoxazol-2-one]",,> 1000 nM
"CN(CC1CN(c2ccc3[nH]c(=O)oc3c2)C(=O)O1)C1CCC(c2ccc(F)cc2)CC1 (stereo not drawn) [Example 4b, trans-6-(5-{[4-(4-Fluoro-phenyl)-cyclohexyl]-methyl-amino}-methyl-2-oxo-oxazolindin-3-yl)-3H-benzoxazol-2-one]",,> 1000 nM
"Cc1sc(-c2ccccc2)nc1CN(C)[C@H]1CC[C@H](c2ccc3[nH]c(=O)oc3c2)CC1 [Example 5b, trans-6-{4-[Methyl-(5-methyl-2-phenyl-thiazol-4-ylmethyl)-amino]-cyclohexyl}-3H-benzoxazol-2-one]",246 to 248 °C,848 nM
